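Here, GI50 denotes the concentration required for 50% inhibition of growth. TGI is the concentration that stops growth completely.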
Experiments:
Test in all cases: DTP human tumour cell line panel, 384-well format
HOP-92 NSCLC = tested on: HOP-92 NSCLC
NCI-H522 lung = tested on: NCI-H522 lung
SN12C renal = tested on: SN12C renal
SK-OV-3 ovarian = tested on: SK-OV-3 ovarian
OVCAR-4 ovarian = tested on: OVCAR-4 ovarian
MDA-MB-468 breast = tested on: MDA-MB-468 breast
UACC-257 melanoma = tested on: UACC-257 melanoma
M14 melanoma = tested on: M14 melanoma
LOX IMVI melanoma = tested on: LOX IMVI melanoma
SK-MEL-2 melanoma = tested on: SK-MEL-2 melanoma
A549 NSCLC = tested on: A549 NSCLC
HL-60(TB) leukemia = tested on: HL-60(TB) leukemia
NCI/ADR-RES ovarian = tested on: NCI/ADR-RES ovarian
SW-620 colon = tested on: SW-620 colon
UO-31 renal = tested on: UO-31 renal
SF-295 CNS = tested on: SF-295 CNS
PC-3 prostate = tested on: PC-3 prostate
BT-549 breast = tested on: BT-549 breast
OVCAR-8 ovarian = tested on: OVCAR-8 ovarian
RXF 393 renal = tested on: RXF 393 renal
786-0 renal = tested on: 786-0 renal
KM12 colon = tested on: KM12 colon
SF-539 CNS = tested on: SF-539 CNS
HOP-62 NSCLC = tested on: HOP-62 NSCLC
SNB-19 CNS = tested on: SNB-19 CNS
OVCAR-5 ovarian = tested on: OVCAR-5 ovarian
TK-10 renal = tested on: TK-10 renal
A498 renal = tested on: A498 renal
U251 glioblastoma = tested on: U251 glioblastoma
MCF7 breast = tested on: MCF7 breast
HCT-15 colon = tested on: HCT-15 colon
HCC-2998 colon = tested on: HCC-2998 colon
NCI-H322M lung = tested on: NCI-H322M lung
HT29 colon = tested on: HT29 colon
MDA-MB-231 breast = tested on: MDA-MB-231 breast
K-562 leukemia = tested on: K-562 leukemia
IGROV1 ovarian = tested on: IGROV1 ovarian
T-47D breast = tested on: T-47D breast
HS 578T breast = tested on: HS 578T breast
SK-MEL-28 melanoma = tested on: SK-MEL-28 melanoma
NCI-H460 NSCLC = tested on: NCI-H460 NSCLC
UACC-62 melanoma = tested on: UACC-62 melanoma
MOLT-4 leukemia = tested on: MOLT-4 leukemia
SK-MEL-5 melanoma = tested on: SK-MEL-5 melanoma
SR leukemia = tested on: SR leukemia
DU-145 prostate = tested on: DU-145 prostate
ACHN renal = tested on: ACHN renal

## O=C1CC[C@H](N2Cc3c(OCc4ccc(CN5CCOCC5)cc4)cccc3C2=O)C(=O)N1
HOP-92 NSCLC
  GI50: > 100 µM
  TGI: > 100 µM
NCI-H522 lung
  GI50: > 100 µM
  TGI: > 100 µM
SN12C renal
  GI50: > 100 µM
  TGI: > 100 µM
SK-OV-3 ovarian
  GI50: > 100 µM
  TGI: > 100 µM
OVCAR-4 ovarian
  GI50: > 100 µM
  TGI: > 100 µM
MDA-MB-468 breast
  GI50: > 100 µM
  TGI: > 100 µM
UACC-257 melanoma
  GI50: > 100 µM
  TGI: > 100 µM
M14 melanoma
  GI50: > 100 µM
  TGI: > 100 µM
LOX IMVI melanoma
  GI50: > 100 µM
  TGI: > 100 µM
SK-MEL-2 melanoma
  GI50: > 100 µM
  TGI: > 100 µM
A549 NSCLC
  GI50: > 100 µM
  TGI: > 100 µM
HL-60(TB) leukemia
  GI50: 43.9 µM
  TGI: > 100 µM
NCI/ADR-RES ovarian
  GI50: > 100 µM
  TGI: > 100 µM
SW-620 colon
  GI50: > 100 µM
  TGI: > 100 µM
UO-31 renal
  GI50: > 100 µM
  TGI: > 100 µM
SF-295 CNS
  GI50: > 100 µM
  TGI: > 100 µM
PC-3 prostate
  GI50: > 100 µM
  TGI: > 100 µM
BT-549 breast
  GI50: > 100 µM
  TGI: > 100 µM
OVCAR-8 ovarian
  GI50: > 100 µM
  TGI: > 100 µM
RXF 393 renal
  GI50: > 100 µM
  TGI: > 100 µM
786-0 renal
  GI50: > 100 µM
  TGI: > 100 µM
KM12 colon
  GI50: > 100 µM
  TGI: > 100 µM
SF-539 CNS
  GI50: > 100 µM
  TGI: > 100 µM
HOP-62 NSCLC
  GI50: > 100 µM
  TGI: > 100 µM
SNB-19 CNS
  GI50: > 100 µM
  TGI: > 100 µM
OVCAR-5 ovarian
  GI50: > 100 µM
  TGI: > 100 µM
TK-10 renal
  GI50: > 100 µM
  TGI: > 100 µM
A498 renal
  GI50: > 100 µM
  TGI: > 100 µM
U251 glioblastoma
  GI50: > 100 µM
  TGI: > 100 µM
MCF7 breast
  GI50: > 100 µM
  TGI: > 100 µM
HCT-15 colon
  GI50: > 100 µM
  TGI: > 100 µM
HCC-2998 colon
  GI50: > 100 µM
  TGI: > 100 µM
NCI-H322M lung
  GI50: > 100 µM
  TGI: > 100 µM
HT29 colon
  GI50: > 100 µM
  TGI: > 100 µM
MDA-MB-231 breast
  GI50: > 100 µM
  TGI: > 100 µM
K-562 leukemia
  GI50: > 100 µM
  TGI: > 100 µM
IGROV1 ovarian
  GI50: > 100 µM
  TGI: > 100 µM
T-47D breast
  GI50: > 100 µM
  TGI: > 100 µM
HS 578T breast
  GI50: > 100 µM
  TGI: > 100 µM
SK-MEL-28 melanoma
  GI50: > 100 µM
  TGI: > 100 µM
NCI-H460 NSCLC
  GI50: > 100 µM
  TGI: > 100 µM
UACC-62 melanoma
  GI50: > 100 µM
  TGI: > 100 µM
MOLT-4 leukemia
  GI50: > 100 µM
  TGI: > 100 µM
SK-MEL-5 melanoma
  GI50: > 100 µM
  TGI: > 100 µM
SR leukemia
  GI50: > 100 µM
  TGI: > 100 µM
DU-145 prostate
  GI50: > 100 µM
  TGI: > 100 µM
ACHN renal
  GI50: > 100 µM
  TGI: > 100 µM

Reference: PubChem BioAssay (NCI)
